Measured values from patent US9884836B2, “2-substituted-5-hydroxy-4H-chromen-4-ones as novel ligands for the serotonin receptor 2B (5-HT2B)” (VIRGINIA COMMONWEALTH UNIVERSITY, priority 2014, dated 2018).
Where two headings read alike, the source gives them in different places.

Legend:
5-HT2B receptor [1] = biological target: T1, 5-HT2B receptor (Homo sapiens, UniProt P41595); assay: Binding affinity (pKi) by competitive inhibition of [3H]LSD at 5-HT2B; conditions: for Ki: pKi at 5-HT2B
5-HT2B receptor [2] = biological target: T1, 5-HT2B receptor; assay: Primary screening: inhibition of radioligand binding at 5-HT2B (NIMH PDSP)
5-HT2A = 5-HT2A (Homo sapiens, UniProt P28223); assay: Primary screening: inhibition of radioligand binding at 5-HT2A (NIMH PDSP)
Sequence of 5-HT2A (P28223 whole entry, species assumed): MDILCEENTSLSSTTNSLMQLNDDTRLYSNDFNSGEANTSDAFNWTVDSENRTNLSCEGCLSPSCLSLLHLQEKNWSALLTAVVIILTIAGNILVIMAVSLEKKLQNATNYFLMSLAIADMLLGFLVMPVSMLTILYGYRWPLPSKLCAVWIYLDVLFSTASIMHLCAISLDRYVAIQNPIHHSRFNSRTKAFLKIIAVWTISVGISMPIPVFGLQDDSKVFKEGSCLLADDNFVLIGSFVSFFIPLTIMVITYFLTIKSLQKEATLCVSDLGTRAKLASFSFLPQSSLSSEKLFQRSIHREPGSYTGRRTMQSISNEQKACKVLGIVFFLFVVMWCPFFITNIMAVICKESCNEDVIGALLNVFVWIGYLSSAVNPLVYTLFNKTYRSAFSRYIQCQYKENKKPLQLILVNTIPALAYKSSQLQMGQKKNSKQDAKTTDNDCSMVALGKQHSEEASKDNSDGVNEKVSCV

5-HT2C [3] = biological target: T2, 5-HT2C (Homo sapiens, UniProt P28335); assay: Primary screening: inhibition of radioligand binding at 5-HT2C (NIMH PDSP)
T2 sequence (P28335 33-458): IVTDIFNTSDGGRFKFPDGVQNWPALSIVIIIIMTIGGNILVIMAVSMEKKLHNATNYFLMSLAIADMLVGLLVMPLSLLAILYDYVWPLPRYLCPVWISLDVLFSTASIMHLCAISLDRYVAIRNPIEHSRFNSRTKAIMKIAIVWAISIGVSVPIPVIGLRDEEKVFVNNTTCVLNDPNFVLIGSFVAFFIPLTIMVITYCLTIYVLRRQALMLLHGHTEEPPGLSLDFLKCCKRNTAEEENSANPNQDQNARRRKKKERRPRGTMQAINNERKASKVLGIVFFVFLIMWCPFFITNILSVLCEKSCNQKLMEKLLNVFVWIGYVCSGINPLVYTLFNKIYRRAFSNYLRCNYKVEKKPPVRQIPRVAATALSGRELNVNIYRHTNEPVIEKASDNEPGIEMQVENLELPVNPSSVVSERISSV

5-HT2B receptor [4] = biological target: T1, 5-HT2B receptor; assay: Calcium mobilization assay in Flp-In HEK cells (agonist/antagonist functional activity); conditions: compound at 10 μM
5-HT2C [5] = biological target: T2, 5-HT2C; assay: Binding affinity (pKi) at 5-HT2C
[6] = read-out: % Inhibition of radioligand binding 5-HT2B
[7] = read-out: inhibitory activity at 5-HT2B
[8] = read-out: % Inhibition of radioligand binding 5-HT2A
[9] = read-out: % Inhibition of radioligand binding 5-HT2C

T1 sequence (P41595 whole entry): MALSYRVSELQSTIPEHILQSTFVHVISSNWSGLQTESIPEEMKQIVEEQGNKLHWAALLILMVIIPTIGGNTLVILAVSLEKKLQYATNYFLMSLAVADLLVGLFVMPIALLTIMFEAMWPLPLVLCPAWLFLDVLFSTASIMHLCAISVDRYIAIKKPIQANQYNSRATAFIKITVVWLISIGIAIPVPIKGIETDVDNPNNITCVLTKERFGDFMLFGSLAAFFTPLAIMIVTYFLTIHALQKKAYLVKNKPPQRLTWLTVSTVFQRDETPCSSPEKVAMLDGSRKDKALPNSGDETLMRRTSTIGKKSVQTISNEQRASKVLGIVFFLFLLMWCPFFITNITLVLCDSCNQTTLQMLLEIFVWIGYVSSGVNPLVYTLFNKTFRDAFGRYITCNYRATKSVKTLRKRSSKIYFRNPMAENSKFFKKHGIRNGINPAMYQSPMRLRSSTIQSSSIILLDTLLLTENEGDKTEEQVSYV

Question: For `O=c1cc(COc2ccccc2)oc2cccc(O)c12` [Compound 22a, 5-hydroxy-2-(phenoxymethyl)-4H-chromen-4-one], which Ki (5-HT2B receptor [1]) is on record?
Answer: > 10 µM

Question: And the Ki (5-HT2B receptor [1]; Table 7)?
Answer: > 10 µM

Question: And the inhibition at 10 µM (5-HT2B receptor [2]; read-out: % Inhibition 5-HT2B)?
Answer: 50%

Question: What about the inhibition at 10 µM (5-HT2B receptor [2]; [6]) of the same compound?
Answer: 50%

Question: What about the inhibition at 10 µM (5-HT2B receptor [2]; [7]) of the same compound?
Answer: 50%

Question: What about the inhibition at 10 µM (5-HT2A; read-out: % Inhibition 5-HT2A) of the same compound?
Answer: 0.2%

Question: What about the inhibition at 10 µM (5-HT2A; [8]) of the same compound?
Answer: 0.2%

Question: And the inhibition at 10 µM (5-HT2C [3]; read-out: % Inhibition 5-HT2C)?
Answer: 7.8%

Question: What about the inhibition at 10 µM (5-HT2C [3]; [9]) of the same compound?
Answer: 7%

Question: Which inhibition at 10 µM (5-HT2B receptor [2]; [6]) does the source give for `O=c1cc(CCc2ccccc2O)oc2cccc(O)c12` [Compound 22b, 5-hydroxy-2-(2-hydroxyphenethyl)-4H-chromen-4-one] here?
Answer: 12.8%

Question: What about the inhibition at 10 µM (5-HT2A; [8]) of the same compound?
Answer: 24.3%

Question: And the inhibition at 10 µM (5-HT2C [3]; [9])?
Answer: 23.8%

Question: How did the “pKi at 5-HT2B” value (5-HT2B receptor [1]) turn out when `O=c1cc(CCc2cccc(O)c2)oc2cccc(O)c12` [Compound 22c, 5-Hydroxy-2-(3′-hydroxy-2-phenylethyl)chromone] was run?
Answer: 5.9

Question: And the Ki (5-HT2B receptor [1]; Table 7)?
Answer: 1.29 µM

Question: What about the inhibition at 10 µM (5-HT2B receptor [2]; [6]) of the same compound?
Answer: 76.3%

Question: What about the inhibition at 10 µM (5-HT2B receptor [2]; [7]) of the same compound?
Answer: 76%

Question: And the inhibition at 10 µM (5-HT2A; [8])?
Answer: 39%

Question: What about the inhibition at 10 µM (5-HT2C [3]; [9]) of the same compound?
Answer: 30.4%

Question: What does the source list for `O=c1cc(CCc2cccs2)oc2cccc(O)c12` [Compound 22e, 5-hydroxy-2-(2-(thiophen-2-yl)ethyl)-4H-chromen-4-one]?
Answer: Ki (5-HT2B receptor [1]): 1.26 µM; Ki (5-HT2B receptor [1]; Table 7): 1.05 µM; inhibition at 10 µM (5-HT2B receptor [2]; read-out: % Inhibition 5-HT2B): 74.8%; inhibition at 10 µM (5-HT2B receptor [2]; [6]): 74.8%; inhibition at 10 µM (5-HT2A; read-out: % Inhibition 5-HT2A): 1.4%; inhibition at 10 µM (5-HT2A; [8]): 1.4%; inhibition at 10 µM (5-HT2C [3]; read-out: % Inhibition 5-HT2C): 19.6%; inhibition at 10 µM (5-HT2C [3]; [9]): 19.6%

Question: `O=c1cc(CCc2ccco2)oc2cccc(O)c12` [Compound 22f, 5-Hydroxy-2-(2-(furan-2-yl)ethyl)chromone] was tested. Which “pKi at 5-HT2B” value (5-HT2B receptor [1]) did it give?
Answer: 5.7

Question: And the Ki (5-HT2B receptor [1]; Table 7)?
Answer: 1.82 µM

Question: And the inhibition at 10 µM (5-HT2B receptor [2]; [6])?
Answer: 68.8%

Question: And the inhibition at 10 µM (5-HT2A; [8])?
Answer: 12.4%

Question: What about the inhibition at 10 µM (5-HT2C [3]; [9]) of the same compound?
Answer: 24.2%

Question: What does the source list for `O=c1cc(Cc2ccccc2)oc2cccc(O)c12` [Compound 22g, 2-benzyl-5-hydroxy-4H-chromen-4-one]?
Answer: inhibition at 10 µM (5-HT2B receptor [2]; read-out: % Inhibition 5-HT2B): 30.6%; inhibition at 10 µM (5-HT2B receptor [2]; [6]): 30.6%; inhibition at 10 µM (5-HT2A; read-out: % Inhibition 5-HT2A): 1.4%; inhibition at 10 µM (5-HT2A; [8]): 1.4%; inhibition at 10 µM (5-HT2C [3]; read-out: % Inhibition 5-HT2C): 24.8%; inhibition at 10 µM (5-HT2C [3]; [9]): 24.8%

Question: What does the source list for `O=c1cc(CCCc2ccccc2)oc2cccc(O)c12` [Compound 22h, 5-hydroxy-2-(3-phenylpropyl)-4H-chromen-4-one]?
Answer: pKi at 5-HT2B (5-HT2B receptor [1]): 6.6; Ki (5-HT2B receptor [1]; Table 7): 0.24 µM; inhibition at 10 µM (5-HT2B receptor [2]; read-out: % Inhibition 5-HT2B): 70.4%; inhibition at 10 µM (5-HT2B receptor [2]; [6]): 70.4%; inhibition at 10 µM (5-HT2A; read-out: % Inhibition 5-HT2A): 5.4%; inhibition at 10 µM (5-HT2A; [8]): 5.4%; inhibition at 10 µM (5-HT2C [3]; read-out: % Inhibition 5-HT2C): 7.9%; inhibition at 10 µM (5-HT2C [3]; [9]): 7.9%; antagonist activity (5-HT2B receptor [4]; challenged with an EC50 dose (1.6 nM) of 5-HT): 20.5±0.5 % inhibition; agonist activity (5-HT2B receptor [4]; compared to 5-HT): 0.23±0.2 % of the maximal response

Question: With `O=c1cc(CCCCc2ccccc2)oc2cccc(O)c12` [Compound 22i, 5-hydroxy-2-(4-phenylbutyl)-4H-chromen-4-one] as the compound, how does the inhibition at 10 µM (5-HT2B receptor [2]; read-out: % Inhibition 5-HT2B) read?
Answer: 45.2%

Question: What about the inhibition at 10 µM (5-HT2B receptor [2]; [6]) of the same compound?
Answer: 45.2%

Question: And the inhibition at 10 µM (5-HT2A; read-out: % Inhibition 5-HT2A)?
Answer: 5.7%

Question: What about the inhibition at 10 µM (5-HT2A; [8]) of the same compound?
Answer: 5.7%

Question: What about the inhibition at 10 µM (5-HT2C [3]; read-out: % Inhibition 5-HT2C) of the same compound?
Answer: 14.7%

Question: And the inhibition at 10 µM (5-HT2C [3]; [9])?
Answer: 14.7%

Question: Which results are given for `O=c1cc(COCc2ccccc2)oc2cccc(O)c12` [Compound 22j, 5-hydroxy-2-((benzyloxy)methyl)chromone]?
Answer: pKi at 5-HT2B (5-HT2B receptor [1]; Table 7): 5.8 ± 0.05; fold decrease in 5-HT2B affinity compared to 5-HPPC (22h) (5-HT2B receptor [1]; relative to 5-HPPC): 6 fold; inhibition at 10 µM (5-HT2B receptor [2]; [6]): 77.7%; inhibition at 10 µM (5-HT2B receptor [2]; [7]): 78%; inhibition at 10 µM (5-HT2A; [8]): 3.2%; inhibition at 10 µM (5-HT2C [3]; [9]): 42.1%

Question: For `O=c1cc(CCc2ccccc2)oc2cc(O)ccc12` [Compound 22k, 7-hydroxy-2-phenethyl-4H-chromen-4-one], which inhibition at 10 µM (5-HT2B receptor [2]; [6]) is on record?
Answer: 34.2%

Question: What about the inhibition at 10 µM (5-HT2A; [8]) of the same compound?
Answer: 35.5%

Question: What about the inhibition at 10 µM (5-HT2C [3]; [9]) of the same compound?
Answer: 33.7%

Question: What does the source list for `O=c1cc(CC(O)c2ccccc2)oc2cc(O)ccc12` (stereo not drawn) [Compound 22l, 7-Hydroxy-2-(2′-hydroxy-2-phenylethyl)chromone]?
Answer: inhibition at 10 µM (5-HT2B receptor [2]; [6]): 16.6%; inhibition at 10 µM (5-HT2A; [8]): 47.9%; inhibition at 10 µM (5-HT2C [3]; [9]): 44%

Question: With `O=c1cc(CCc2cccc(O)c2)oc2cc(O)ccc12` [Compound 22m, 7-Hydroxy-2-(3′-hydroxy-2-phenylethyl)chromone] as the compound, how does the inhibition at 10 µM (5-HT2B receptor [2]; [6]) read?
Answer: 25.3%

Question: What about the inhibition at 10 µM (5-HT2A; [8]) of the same compound?
Answer: 23.2%

Question: What about the inhibition at 10 µM (5-HT2C [3]; [9]) of the same compound?
Answer: 0%

Question: For `O=c1cc(CCc2ccc(O)cc2)oc2cc(O)ccc12` [Compound 22n, 7-Hydroxy-2-(4′-hydroxy-2-phenylethyl)chromone], which Ki (5-HT2C [5]) is on record?
Answer: 2.51 µM

Question: What about the Ki (5-HT2C [5]; Table 7) of the same compound?
Answer: 2.45 µM

Question: What about the inhibition at 10 µM (5-HT2B receptor [2]; [6]) of the same compound?
Answer: 40.8%

Question: What about the inhibition at 10 µM (5-HT2A; [8]) of the same compound?
Answer: 33.3%

Question: What about the inhibition at 10 µM (5-HT2C [3]; [9]) of the same compound?
Answer: 53.1%

Question: And the inhibition at 10 µM (5-HT2C [3]; read-out: inhibitory activity at 5-HT2C)?
Answer: 53%

Question: For `O=c1cc(COc2ccc3ccccc3c2)oc2cccc(O)c12` [Compound 22o, 5-hydroxy-2-((naphthalen-2-yloxy)methyl)chromone], which inhibition at 10 µM (5-HT2B receptor [2]; [6]) is on record?
Answer: 2.9%

Question: And the inhibition at 10 µM (5-HT2A; [8])?
Answer: -3%

Question: What about the inhibition at 10 µM (5-HT2C [3]; [9]) of the same compound?
Answer: -0.7%

Question: `O=c1cc(COc2cccc3ccccc23)oc2cccc(O)c12` [Compound 22p, 5-hydroxy-2-((naphthalen-1-yloxy)methyl)chromone] was tested. Which inhibition at 10 µM (5-HT2B receptor [2]; [6]) did it give?
Answer: 11.8%

Question: What about the inhibition at 10 µM (5-HT2A; [8]) of the same compound?
Answer: -1.1%

Question: What about the inhibition at 10 µM (5-HT2C [3]; [9]) of the same compound?
Answer: 0.7%

Question: `O=c1cc(Cc2cccc3ccccc23)oc2cccc(O)c12` [Compound 22q, 5-hydroxy-2-(naphthalen-1-ylmethyl)chromone] was tested. Which inhibition at 10 µM (5-HT2B receptor [2]; [6]) did it give?
Answer: 17.4%

Question: And the inhibition at 10 µM (5-HT2A; [8])?
Answer: 9.5%

Question: And the inhibition at 10 µM (5-HT2C [3]; [9])?
Answer: 2.1%

Question: How did the inhibition at 10 µM (5-HT2B receptor [2]; read-out: % Inhibition 5-HT2B) turn out when `O=c1cc(Cc2cccs2)oc2cccc(O)c12` [Compound 22r, 5-hydroxy-2-(thiophen-2-ylmethyl)-4H-chromen-4-one] was run?
Answer: 31.5%

Question: And the inhibition at 10 µM (5-HT2B receptor [2]; [6])?
Answer: 31.5%

Question: And the inhibition at 10 µM (5-HT2A; read-out: % Inhibition 5-HT2A)?
Answer: -4.5%

Question: What about the inhibition at 10 µM (5-HT2A; [8]) of the same compound?
Answer: -4.5%

Question: What about the inhibition at 10 µM (5-HT2C [3]; read-out: % Inhibition 5-HT2C) of the same compound?
Answer: 23.5%

Question: What about the inhibition at 10 µM (5-HT2C [3]; [9]) of the same compound?
Answer: 23.5%

Question: For `O=c1cc(COCCc2ccccc2)oc2cccc(O)c12` [Compound 22s, 5-hydroxy-2-(phenethoxymethyl)chromone], which Ki (5-HT2B receptor [1]; Table 7) is on record?
Answer: 1.26 µM

Question: And the inhibition at 10 µM (5-HT2B receptor [2]; [6])?
Answer: 77.7%

Question: And the inhibition at 10 µM (5-HT2A; [8])?
Answer: 0.3%

Question: And the inhibition at 10 µM (5-HT2C [3]; [9])?
Answer: 11.7%
